Assay [1] deals with T1, AgOAR45B (Anopheles gambiae, UniProt F5HJT6). In kind it is cell-based. The settings on record: for IC50: read-out: IC 50 (antagonist), in the presence of 1 μM octopamine. As for the experimental part: GloResponse™CRE-luc2P HEK293 reporter cell line (Promega) were maintained as adherent culture at 37°C, 5% CO2 in DMEM (Invitrogen) supplemented with 10% fetal calf serum (Atlanta), and […] hygromycin B. Transfection of cells was carried out using the Amaxa Nucleofector kit per the manufacturer’s instructions. […] Stable lines were created by applying […] G418 for three weeks. Stable clones of AgOAR45B expressing HEK293 reporter cells were created through two rounds of limiting dilution cloning.
Intracellular cAMP increase was monitored through a CRE-luc reporter construct in HEK293 cells (Promega). Stable cell lines were plated at a density of 4×10^4 cells per well in white 96-well assay plates (Corning, Cat. #3917). Cells were immediately treated with the various compounds, and returned to the incubator for four hours before being assayed. cAMP was quantified through luciferase production using the Dual-Glo luciferase assay kit (Promega) following the manufacturer’s instructions. Luciferase units were normalized to the cell number using the internal Rluc construct in the pF9A expression plasmid.

In assay [2] the target is T1, AgOAR45B. Nature of the assay: 3H-Yohimbine competition radioligand binding assay on membranes. As to conditions: competition with 16 nM 3H-Yohimbine. As for the experimental part:
Cells in T75 flasks were washed with 10 ml of PBS, removed by scraping, centrifuged at 500 g, and then resuspended in 5 ml of lysis buffer, 50 mM Tris-Cl pH 7.4. Cells were incubated on ice for 10 min and homogenized with a Dounce homogenizer with 30 strokes. The homogenate and 5 ml wash with lysis buffer were then centrifuged at 23,000 g for 30 min at 4°C to pellet crude membranes. The resulting pellet was re-suspended in 50 mM Tris-Cl pH 7.4, 5 mM MgCl2, 0.5 mM EDTA pH 7.4 and quantified by micro BCA assay (Thermo).
Radioligand binding assays were carried out using ^3H-Yohimbine to determine binding affinity of the octopamine receptor with different compounds. Isolated membranes, 30 μg per well, were incubated in the presence of 16 nM ^3H-Yohimbine (American Radiolabeled Chemicals) in binding buffer, and various concentrations of compounds. The final reaction volume was […] per well in a 96-well assay plate. […] clonidine was used to determine non-specific binding in each experiment. After a two-hour incubation, membranes were collected and washed on filter mats, pretreated with 0.3% polyethylenimine (Sigma) using a Brandel 96-well harvester and counted in a Perkin Elmer Microbeta counter.

The target of assay [3] is AgOAR45A (Anopheles gambiae, UniProt Q7PRZ8, DEL426-427). Nature of the assay: cell-based.
Setting [4] is: read-out: EC 50 (agonist), AgOAR45B, HEK293-CRE-Luc cells.

Structures are written as SMILES. Structures can show the parent of a compound that is named as a salt. Where two headings read alike, the source gives them in different places.

Chain of AgOAR45A (Q7PRZ8 entry or part of it DEL426-427): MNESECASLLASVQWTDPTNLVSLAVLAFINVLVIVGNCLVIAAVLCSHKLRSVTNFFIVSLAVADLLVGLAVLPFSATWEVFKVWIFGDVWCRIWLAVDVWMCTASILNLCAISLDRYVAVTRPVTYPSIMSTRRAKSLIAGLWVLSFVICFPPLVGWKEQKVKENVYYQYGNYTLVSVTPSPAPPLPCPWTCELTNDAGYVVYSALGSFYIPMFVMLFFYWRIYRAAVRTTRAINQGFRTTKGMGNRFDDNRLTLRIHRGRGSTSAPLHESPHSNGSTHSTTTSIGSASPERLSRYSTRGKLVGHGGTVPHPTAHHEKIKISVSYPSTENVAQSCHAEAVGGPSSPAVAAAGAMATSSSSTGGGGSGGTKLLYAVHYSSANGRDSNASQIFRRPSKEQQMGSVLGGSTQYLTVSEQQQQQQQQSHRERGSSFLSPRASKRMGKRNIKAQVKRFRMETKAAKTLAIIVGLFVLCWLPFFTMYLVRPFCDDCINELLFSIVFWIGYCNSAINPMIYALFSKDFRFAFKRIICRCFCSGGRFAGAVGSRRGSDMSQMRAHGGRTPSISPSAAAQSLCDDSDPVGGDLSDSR
T1 sequence (F5HJT6 entry or part of it): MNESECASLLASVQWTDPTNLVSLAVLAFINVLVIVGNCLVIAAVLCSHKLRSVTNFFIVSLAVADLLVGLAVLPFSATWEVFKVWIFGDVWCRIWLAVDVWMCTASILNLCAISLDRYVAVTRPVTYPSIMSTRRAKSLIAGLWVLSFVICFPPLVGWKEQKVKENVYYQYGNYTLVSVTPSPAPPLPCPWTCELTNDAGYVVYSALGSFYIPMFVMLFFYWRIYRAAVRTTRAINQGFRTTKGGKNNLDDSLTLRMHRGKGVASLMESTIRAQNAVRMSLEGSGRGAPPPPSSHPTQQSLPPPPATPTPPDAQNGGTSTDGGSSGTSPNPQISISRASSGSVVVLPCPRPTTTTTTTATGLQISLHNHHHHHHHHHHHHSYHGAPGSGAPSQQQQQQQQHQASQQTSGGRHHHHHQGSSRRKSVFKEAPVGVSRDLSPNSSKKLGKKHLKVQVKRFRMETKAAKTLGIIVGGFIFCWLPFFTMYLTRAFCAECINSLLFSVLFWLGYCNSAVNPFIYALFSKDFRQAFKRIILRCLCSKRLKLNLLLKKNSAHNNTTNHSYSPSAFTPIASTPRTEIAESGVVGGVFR

Turning to `NCC(O)c1ccc(O)cc1` (racemic) [Octopamine, DL-octopamine], the EC50 in assay [1] (Table 2, AgOAR45B reporter assay) came to 17 nM; in assay [1] (setting [4]) it was 17 nM; in assay [3] it was 53 nM. In addition, the affinity in assay [2] corresponds to a Ki of 7700 nM.

Take `CN(C)CCCN1c2ccccc2Sc2ccc(Cl)cc21` [Chlorpromazine, chlorpromazine]: in assay [1] (AgOAR45B), the IC50 is 9900 nM.

For `Clc1cccc(Cl)c1N=C1NCCN1` [Clonidine, clonidine], the EC50 in assay [1] (setting [4]) was 0.24 nM; in assay [3], 2 nM.

In the case of `NCCc1ccc(O)c(O)c1` [Dopamine, dopamine], the EC50 in assay [1] (setting [4]) and in assay [3] was above 50000 nM in each case.

On to `CCN(CC)CCNC(=O)c1cc(Cl)c(N)cc1OC` [Metaclopramide, Metoclopramide hydrochloride], for which the IC50 in assay [1] (AgOAR45B) is above 50000 nM.

`c1ccc2c(CC3=NCCN3)cccc2c1` [Naphazoline, naphazoline]: the results for the EC50 in assay [1] (setting [4]) and in assay [3] were 0.23 nM and 2.2 nM, respectively.

Turning to `Cc1ccc(N(CC2=NCCN2)c2cccc(O)c2)cc1` [Phentolamine, phentolamine], the EC50 in assay [1] (setting [4]) was determined as 5.8 nM; in assay [3] it was 10 nM.

Regarding `CC(CN1c2ccccc2Sc2ccccc21)N(C)C` (stereo not drawn) [Promethazine, promethazine], in assay [1] (AgOAR45B), the IC50 amounted to 2000 nM.

Regarding `NCCc1c[nH]c2ccc(O)cc12` [Serotonin, serotonin], the EC50 in assay [1] (setting [4]) and in assay [3] was above 50000 nM in each case.

`c1ccc(CC2=NCCN2)cc1` [Tolazoline, tolazoline]: the EC50 is 5 nM in assay [1] (setting [4]) and 280 nM in assay [3].

Take `NCCc1ccc(O)cc1` [Tyramine, tyramine]: the figures for the EC50 in assay [1] (setting [4]) and in assay [3] were 840 nM and 4600 nM, respectively.

Broadly, the Ki is a dissociation constant, usually derived from enzyme kinetics or from competition with a known ligand. A low value points to tighter binding.
